Data as given in ChEMBL document CHEMBL1154795, “Aptamers as a model for functional evaluation of LNA and 2'-amino LNA” (Bioorg Med Chem Lett, 2009).

experiment: Binding affinity to avidin by surface plasmon resonance assay

Row | Kd [nM] | SMILES
1 | 9.78 | Cc1cn([C@@H]2O[C@H](COP(=O)(O)O[C@H]3[C@@H](O)[C@H](n4ccc(N)nc4=O)O[C@@H]3COP(=O)(O)O[C@H]3[C@@H](O)[C@H](n4cnc5c(=O)[nH]c(N)nc54)O[C@@H]3COP(=O)(O)O[C@H]3[C@@H](O)[C@H](n4cnc5c(=O)[nH]c(N)nc54)O[C@@H]3CO)[C@@H](OP(=O)(O)OC[C@H]3O[C@@H](n4cnc5c(N)ncnc54)[C@H](O)[C@@H]3OP(=O)(O)OC[C@H]3O[C@@H](n4cnc5c(N)ncnc54)[C@H](O)[C@@H]3OP(=O)(O)OC[C@H]3O[C@@H](n4cc(C)c(=O)[nH]c4=O)[C@H](O)[C@@H]3OP(=O)(O)OC[C@H]3O[C@@H](n4cnc5c(N)ncnc54)[C@H](O)[C@@H]3OP(=O)(O)OC[C@H]3O[C@@H](n4cnc5c(=O)[nH]c(N)nc54)[C@H](O)[C@@H]3OP(=O)(O)OC[C@H]3O[C@@H](n4cnc5c(N)ncnc54)[C@H](O)[C@@H]3OP(=O)(O)OC[C@H]3O[C@@H](n4ccc(N)nc4=O)[C@H](O)[C@@H]3OP(=O)(O)OC[C@H]3O[C@@H](n4ccc(N)nc4=O)[C@H](O)[C@@H]3OP(=O)(O)OC[C@H]3O[C@@H](n4cc(C)c(=O)[nH]c4=O)[C@H](O)[C@@H]3OP(=O)(O)OC[C@H]3O[C@@H](n4cnc5c(=O)[nH]c(N)nc54)[C@H](O)[C@@H]3OP(=O)(O)OC[C@H]3O[C@@H](n4cnc5c(=O)[nH]c(N)nc54)[C@H](O)[C@@H]3OP(=O)(O)OC[C@H]3O[C@@H](n4cnc5c(=O)[nH]c(N)nc54)[C@H](O)[C@@H]3OP(=O)(O)OC[C@H]3O[C@@H](n4cnc5c(=O)[nH]c(N)nc54)[C@H](O)[C@@H]3OP(=O)(O)OC[C@H]3O[C@@H](n4cc(C)c(=O)[nH]c4=O)[C@H](O)[C@@H]3OP(=O)(O)OC[C@H]3O[C@@H](n4cc(C)c(=O)[nH]c4=O)[C@H](O)[C@@H]3OP(=O)(O)OC[C@H]3O[C@@H](n4cnc5c(=O)[nH]c(N)nc54)[C@H](O)[C@@H]3OP(=O)(O)OC[C@H]3O[C@@H](n4cnc5c(=O)[nH]c(N)nc54)[C@H](O)[C@@H]3OP(=O)(O)O)[C@H]2O)c(=O)[nH]c1=O
2 | 4.2 | COP(=O)(O)O[C@H]1[C@@H](O)[C@H](n2cnc3c(=O)[nH]c(N)nc32)O[C@@H]1COP(=O)(O)O[C@H]1[C@@H](O)[C@H](n2cnc3c(=O)[nH]c(N)nc32)O[C@@H]1COP(=O)(O)O[C@H]1[C@@H](O)[C@H](n2cc(C)c(=O)[nH]c2=O)O[C@@H]1COP(=O)(O)O[C@H]1[C@H]2NC[C@]1(COP(=O)(O)O[C@H]1[C@@H](O)[C@H](n3cnc4c(=O)[nH]c(N)nc43)O[C@@H]1COP(=O)(O)O[C@H]1[C@@H](O)[C@H](n3cnc4c(=O)[nH]c(N)nc43)O[C@@H]1COP(=O)(O)O[C@H]1[C@@H](O)[C@H](n3cnc4c(=O)[nH]c(N)nc43)O[C@@H]1COP(=O)(O)O[C@H]1[C@@H](O)[C@H](n3cnc4c(=O)[nH]c(N)nc43)O[C@@H]1COP(=O)(O)O[C@H]1[C@@H](O)[C@H](n3cc(C)c(=O)[nH]c3=O)O[C@@H]1COP(=O)(O)O[C@H]1[C@@H](O)[C@H](n3ccc(N)nc3=O)O[C@@H]1COP(=O)(O)O[C@H]1[C@@H](O)[C@H](n3ccc(N)nc3=O)O[C@@H]1COP(=O)(O)O[C@H]1[C@@H](O)[C@H](n3cnc4c(N)ncnc43)O[C@@H]1COP(=O)(O)O[C@H]1[C@@H](O)[C@H](n3cnc4c(=O)[nH]c(N)nc43)O[C@@H]1COP(=O)(O)O[C@H]1[C@@H](O)[C@H](n3cnc4c(N)ncnc43)O[C@@H]1COP(=O)(O)O[C@H]1[C@@H](O)[C@H](n3cc(C)c(=O)[nH]c3=O)O[C@@H]1COP(=O)(O)O[C@H]1[C@@H](O)[C@H](n3cnc4c(N)ncnc43)O[C@@H]1COP(=O)(O)O[C@H]1[C@@H](O)[C@H](n3cnc4c(N)ncnc43)O[C@@H]1COP(=O)(O)O[C@H]1[C@@H](O)[C@H](n3cc(C)c(=O)[nH]c3=O)O[C@@H]1COP(=O)(O)O[C@H]1[C@@H](O)[C@H](n3ccc(N)nc3=O)O[C@@H]1COP(=O)(O)O[C@H]1[C@H]3OC[C@]1(COP(=O)(O)O[C@H]1[C@@H](O)[C@H](n4cnc5c(=O)[nH]c(N)nc54)O[C@@H]1CO)O[C@H]3n1cnc3c(=O)[nH]c(N)nc31)O[C@H]2n1cc(C)c(=O)[nH]c1=O
3 | 13.1 | Cc1cn([C@@H]2O[C@H](COP(=O)(O)O[C@H]3[C@@H](O)[C@H](n4ccc(N)nc4=O)O[C@@H]3COP(=O)(O)O[C@H]3[C@@H](O)[C@H](n4cnc5c(=O)[nH]c(N)nc54)O[C@@H]3COP(=O)(O)O[C@H]3[C@@H](O)[C@H](n4cnc5c(=O)[nH]c(N)nc54)O[C@@H]3CO)[C@@H](OP(=O)(O)OC[C@H]3O[C@@H](n4cnc5c(N)ncnc54)[C@H](O)[C@@H]3OP(=O)(O)OC[C@H]3O[C@@H](n4cnc5c(N)ncnc54)[C@H](O)[C@@H]3OP(=O)(O)OC[C@H]3O[C@@H](n4cc(C)c(=O)[nH]c4=O)[C@H](O)[C@@H]3OP(=O)(O)OC[C@H]3O[C@@H](n4cnc5c(N)ncnc54)[C@H](O)[C@@H]3OP(=O)(O)OC[C@H]3O[C@@H](n4cnc5c(=O)[nH]c(N)nc54)[C@H](O)[C@@H]3OP(=O)(O)OC[C@H]3O[C@@H](n4cnc5c(N)ncnc54)[C@H](O)[C@@H]3OP(=O)(O)OC[C@H]3O[C@@H](n4ccc(N)nc4=O)[C@H](O)[C@@H]3OP(=O)(O)OC[C@H]3O[C@@H](n4ccc(N)nc4=O)[C@H](O)[C@@H]3OP(=O)(O)OC[C@H]3O[C@@H](n4cc(C)c(=O)[nH]c4=O)[C@H](O)[C@@H]3OP(=O)(O)OC[C@H]3O[C@@H](n4cnc5c(=O)[nH]c(N)nc54)[C@H](O)[C@@H]3OP(=O)(O)OC[C@H]3O[C@@H](n4cnc5c(=O)[nH]c(N)nc54)[C@H](O)[C@@H]3OP(=O)(O)O)[C@H]2O)c(=O)[nH]c1=O
4 | 4.97 | Cc1cn([C@@H]2O[C@H](COP(=O)(O)O[C@H]3[C@@H](O)[C@H](n4ccc(N)nc4=O)O[C@@H]3COP(=O)(O)O[C@H]3[C@H]4OC[C@]3(COP(=O)(O)O[C@H]3[C@@H](O)[C@H](n5cnc6c(=O)[nH]c(N)nc65)O[C@@H]3CO)O[C@H]4n3cnc4c(=O)[nH]c(N)nc43)[C@@H](OP(=O)(O)OC[C@H]3O[C@@H](n4cnc5c(N)ncnc54)[C@H](O)[C@@H]3OP(=O)(O)OC[C@H]3O[C@@H](n4cnc5c(N)ncnc54)[C@H](O)[C@@H]3OP(=O)(O)OC[C@H]3O[C@@H](n4cc(C)c(=O)[nH]c4=O)[C@H](O)[C@@H]3OP(=O)(O)OC[C@H]3O[C@@H](n4cnc5c(N)ncnc54)[C@H](O)[C@@H]3OP(=O)(O)OC[C@H]3O[C@@H](n4cnc5c(=O)[nH]c(N)nc54)[C@H](O)[C@@H]3OP(=O)(O)OC[C@H]3O[C@@H](n4cnc5c(N)ncnc54)[C@H](O)[C@@H]3OP(=O)(O)OC[C@H]3O[C@@H](n4ccc(N)nc4=O)[C@H](O)[C@@H]3OP(=O)(O)OC[C@H]3O[C@@H](n4ccc(N)nc4=O)[C@H](O)[C@@H]3OP(=O)(O)OC[C@H]3O[C@@H](n4cc(C)c(=O)[nH]c4=O)[C@H](O)[C@@H]3OP(=O)(O)OC[C@H]3O[C@@H](n4cnc5c(=O)[nH]c(N)nc54)[C@H](O)[C@@H]3OP(=O)(O)OC[C@H]3O[C@@H](n4cnc5c(=O)[nH]c(N)nc54)[C@H](O)[C@@H]3OP(=O)(O)OC[C@H]3O[C@@H](n4cnc5c(=O)[nH]c(N)nc54)[C@H](O)[C@@H]3OP(=O)(O)OC[C@H]3O[C@@H](n4cnc5c(=O)[nH]c(N)nc54)[C@H](O)[C@@H]3OP(=O)(O)OC[C@H]3O[C@@H](n4cc(C)c(=O)[nH]c4=O)[C@H](O)[C@@H]3OP(=O)(O)OC[C@@]34CN[C@@H]([C@H](n5cc(C)c(=O)[nH]c5=O)O3)[C@@H]4OP(=O)(O)OC[C@H]3O[C@@H](n4cnc5c(=O)[nH]c(N)nc54)[C@H](O)[C@@H]3OP(=O)(O)OC[C@H]3O[C@@H](n4cnc5c(=O)[nH]c(N)nc54)[C@H](O)[C@@H]3OP(=O)(O)O)[C@H]2O)c(=O)[nH]c1=O
